# Earlier results as cited in US10215758B2, “Platinum-labeled probes for mass cytometry” (priority 2015, dated 2019).
# Settings: human, in vivo; cited from earlier work
smiles,measurement,value
"N.N.[Cl][Pt][Cl] [cisplatin, cis-diamminedichloroplatinum(II)]",binding to serum protein,most cisplatin binds to serum protein within hours
